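96-well plates; 48 h exposure; 5 concentrations. Endpoints by linear interpolation between flanking doses. Not reached: highest tested concentration assigned. TGI is the concentration that stops growth completely.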
Experiments:
Assay in all cases: NCI tumour cell line growth inhibition, 48 h
[1] = tested on: SK-MEL-5 melanoma
[2] = tested on: M19-MEL melanoma
[3] = tested on: KM12 colon
[4] = tested on: NCI-H460 lung
[5] = tested on: HOP-18 NSCLC
[6] = tested on: XF 498 CNS
[7] = tested on: KM20L2 colon
[8] = tested on: DMS 273 small cell lung
[9] = tested on: SNB-78 CNS
[10] = tested on: DLD-1 colon
[11] = tested on: 786-0 renal
[12] = tested on: DMS 114 small cell lung
[13] = tested on: LXFL 529 NSCLC
[14] = tested on: SR leukemia
[15] = tested on: T-47D breast
[16] = tested on: MDA-MB-435

Compound | TGI [1] | TGI [2] | TGI [3] | TGI [4] | TGI [5] | TGI [6] | TGI [7] | TGI [8] | TGI [9] | TGI [10] | TGI [11] | TGI [12] | TGI [13] | TGI [14] | TGI [15] | TGI [16]
C[C@H](CN1CC(=O)NC(=O)C1)N1CC(=O)NC(=O)C1 | > 100 µM | > 100 µM | > 100 µM | > 100 µM | > 100 µM | > 100 µM | > 100 µM | > 100 µM | > 100 µM | > 100 µM |  |  |  |  |  | 
CC(C)N1CCC2(CC1)NNc1ncccc1-n1cccc12 | > 100 µM | > 100 µM | > 100 µM | > 100 µM | > 100 µM | > 100 µM |  | > 100 µM | > 100 µM | > 100 µM | > 100 µM | > 100 µM |  |  |  | 
CC(=O)Nc1ccc(-c2nnc(SCC(=O)Nc3cccc([N+](=O)[O-])c3)o2)cc1 | 27.1 µM | 28.3 µM | 39.4 µM | 28.8 µM | 65.9 µM |  | 37.4 µM | 23.5 µM | 50 µM | 35.5 µM | 40.6 µM | 22.3 µM | 17 µM | 89.2 µM |  | 
Nc1nn(CC(O)CO)c(=O)s1 (configuration not stated) | > 100 µM | > 100 µM |  | > 100 µM | > 100 µM | > 100 µM | > 100 µM | > 100 µM |  | > 100 µM |  | > 100 µM | > 100 µM | > 100 µM |  | 
O=C1C2=C(CCCCC2)C2CCCCC12O (configuration not stated) |  | > 100 µM | > 100 µM | > 100 µM |  | > 100 µM | > 100 µM | > 100 µM | > 100 µM | > 100 µM | > 100 µM | > 100 µM | > 100 µM | > 100 µM |  | 
COc1cc2cc3c4c(cc(OC)c(OC)c4c2cc1OC)CCN3C(=O)N(C)C | > 100 µM | > 100 µM | > 100 µM | > 100 µM |  |  | > 100 µM | > 100 µM | > 100 µM | > 100 µM | > 100 µM | > 100 µM | > 100 µM | > 100 µM |  | 
COc1ccc(/C(Cl)=C(\C=O)c2ccccc2)cc1OC | > 100 µM | > 100 µM |  | > 100 µM | > 100 µM |  | > 100 µM | > 100 µM | > 100 µM | > 100 µM |  | > 100 µM | 55.1 µM | > 100 µM |  | 
N/C(=N\N=C\c1cc2c(cc1Cl)OCO2)NO | 58.9 µM | > 100 µM | > 100 µM | > 100 µM | > 100 µM | > 34.2 µM | > 100 µM | > 77.8 µM | > 100 µM | > 100 µM |  | > 100 µM |  |  |  | 
N#Cc1ccc(Nc2cnc3ccc(N)cc3n2)cc1 | > 100 µM | > 100 µM | > 100 µM | > 100 µM |  | > 100 µM | > 100 µM | > 100 µM | > 100 µM | > 100 µM | > 100 µM | > 100 µM | > 100 µM | > 100 µM |  | 
CSC1(SC)N2Cc3ccccc3N=C2C1(c1ccccc1)c1ccccc1 | 28.8 µM |  | > 35.6 µM | 64.3 µM |  |  |  |  |  |  | > 100 µM |  |  | 9.36 µM | > 100 µM | 16 µM
COc1ccc(-c2nnc(-c3c(C)n(C)n(-c4ccccc4)c3=O)o2)cc1 |  | > 100 µM | > 100 µM | > 100 µM | > 100 µM | > 100 µM | > 100 µM | > 100 µM | > 100 µM | > 100 µM | > 100 µM | > 100 µM | > 100 µM | > 100 µM |  | 
COc1cc(C2c3cc4c(cc3OC3(OC)COC(=O)C23)OCO4)cc(OC)c1OC (configuration not stated) | 7.46 µM |  | 7.68 µM | > 67.9 µM |  |  |  |  |  |  | > 27.1 µM |  |  | 4.8 µM | > 100 µM | 0.68 µM
COc1ccc(CCNC(=O)CCCCCO)cc1OC | > 100 µM |  | > 100 µM | > 100 µM |  |  |  |  |  |  | > 100 µM |  |  | > 100 µM | > 100 µM | > 100 µM
NNC(=O)CCC(NS(=O)(=O)c1ccc(Cl)cc1)C(=O)NN (configuration not stated) | > 100 µM |  | > 100 µM | > 100 µM |  |  |  |  |  |  | > 100 µM |  |  | > 100 µM | > 100 µM | > 100 µM
S=c1nc2sc3c(c2c(Nc2ccc(Br)cc2)[nH]1)CCN(N1CCc2c(sc4nc(=S)[nH]c(Nc5ccc(Br)cc5)c24)C1)C3 | > 50 µM |  | > 50 µM | > 50 µM |  |  |  |  |  |  | 15.5 µM |  |  | > 50 µM | > 50 µM | > 50 µM
Cc1cc2c(c(C(=O)NCCC(=O)N[C@@H](C)C(=O)OCc3ccccc3)c1)Oc1c(cc(C)cc1C(=O)NCCC(=O)N[C@@H](C)C(=O)OCc1ccccc1)S2 | > 100 µM |  | > 100 µM | > 100 µM |  |  |  |  |  |  | > 100 µM |  |  | > 100 µM | > 100 µM | > 100 µM
C[C@H](N)C(=O)N[C@@H]1[C@H]2C(=C(O)C[C@@H](O)[C@@H]2O)C(=O)O[C@@H]1C | > 100 µM | > 100 µM | > 100 µM | > 100 µM | > 100 µM | > 100 µM | > 100 µM | > 100 µM |  | > 100 µM |  | > 100 µM |  |  |  | 
O=[N+]([O-])c1ccc2nc(/C=C(\O)c3ccccc3)c(/C=C(\O)c3ccccc3)nc2c1 | > 39.2 µM |  | > 100 µM | > 81 µM |  |  |  |  |  |  | 44.3 µM |  |  | > 94.9 µM | 37.3 µM | > 56.2 µM
CCCCCCCC(=O)OCC(C[As](=O)(O)O)OC(=O)CCCCCCC (configuration not stated) | 32 µM | 32.4 µM |  |  | 29.3 µM |  | 30.7 µM | 27.4 µM | 44.1 µM | 30.9 µM | 30.9 µM | 30.6 µM | 26.3 µM | 60.8 µM |  | 
Cc1ccc(S(=O)(=O)C2c3nc4ccccc4cc3-c3nc4ccccc4nc32)cc1 (configuration not stated) | > 100 µM | > 100 µM | > 100 µM |  |  | > 100 µM | > 100 µM | > 100 µM | > 100 µM | > 100 µM | > 100 µM | > 100 µM | > 100 µM | > 100 µM |  | 
CCOC(=O)C1C[C@H]2CO[C@H](c3ccccc3)N2C1=O (some centres not stated) | > 100 µM |  | > 100 µM | > 100 µM |  |  |  |  |  |  | > 100 µM |  |  | > 100 µM | > 100 µM | > 100 µM
CCCCNC(=S)c1ccc(OC(=O)Nc2ccc(Cl)cc2)cc1 | > 100 µM |  | > 100 µM | > 100 µM |  |  |  |  |  |  | > 100 µM |  |  | > 100 µM | > 100 µM | > 100 µM
COC12OC3CC4(C)C(=CC3OC(OC(C)C1O)C2O)CCC1C4CCC2(C)C(c3ccc(=O)oc3)CCC12O (configuration not stated) | 0.00171 µM |  | 0.00739 µM | 0.00224 µM |  |  |  |  |  |  | 0.00195 µM |  |  | 0.00291 µM | 0.0782 µM | 0.00564 µM
Cc1c(O)c(=O)ccn1CCc1c[nH]c2ccccc12 | 24.1 µM |  | > 100 µM | 19.4 µM |  |  |  |  |  |  | 9.06 µM |  |  | 49.2 µM | 78 µM | > 100 µM

Source: PubChem BioAssay (NCI)
